The text below walks through data of publication PMC4878759 (PLoS ONE, 2016).

Broadly, the IC50 is the midpoint of a concentration-inhibition curve.

The target in one assay is T1, human ANO1(abc) (Homo sapiens, UniProt Q5XXA6, DEL476-501).
T1 construct: expressed in transfected cells
T1 sequence (Q5XXA6 with tags, fused parts or gaps isoform Q5XXA6-5 DEL539-564): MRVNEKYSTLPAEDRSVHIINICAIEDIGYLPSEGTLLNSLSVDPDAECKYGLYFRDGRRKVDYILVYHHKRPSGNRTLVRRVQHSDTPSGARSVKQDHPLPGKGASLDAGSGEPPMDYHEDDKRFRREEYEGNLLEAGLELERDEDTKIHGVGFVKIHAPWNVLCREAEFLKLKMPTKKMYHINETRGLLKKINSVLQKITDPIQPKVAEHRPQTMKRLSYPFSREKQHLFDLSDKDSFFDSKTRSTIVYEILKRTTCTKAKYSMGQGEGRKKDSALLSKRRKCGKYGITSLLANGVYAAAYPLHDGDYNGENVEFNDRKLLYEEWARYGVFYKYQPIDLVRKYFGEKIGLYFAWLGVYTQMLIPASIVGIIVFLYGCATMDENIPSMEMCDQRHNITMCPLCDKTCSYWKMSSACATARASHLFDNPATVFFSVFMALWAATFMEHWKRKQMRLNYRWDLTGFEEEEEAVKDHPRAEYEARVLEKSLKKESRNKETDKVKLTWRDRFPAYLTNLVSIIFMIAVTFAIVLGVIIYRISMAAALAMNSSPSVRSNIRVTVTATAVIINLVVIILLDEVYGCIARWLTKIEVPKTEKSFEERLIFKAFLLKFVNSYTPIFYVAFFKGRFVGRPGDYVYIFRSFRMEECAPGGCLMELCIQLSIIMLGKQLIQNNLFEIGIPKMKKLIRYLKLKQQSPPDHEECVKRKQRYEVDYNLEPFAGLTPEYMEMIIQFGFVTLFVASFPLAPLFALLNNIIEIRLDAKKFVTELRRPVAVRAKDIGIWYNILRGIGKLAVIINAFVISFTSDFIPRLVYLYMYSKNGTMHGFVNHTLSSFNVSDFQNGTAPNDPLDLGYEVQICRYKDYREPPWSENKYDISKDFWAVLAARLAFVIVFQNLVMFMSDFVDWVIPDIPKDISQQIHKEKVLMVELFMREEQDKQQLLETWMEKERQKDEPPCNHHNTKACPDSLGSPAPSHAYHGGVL
Briefly: YFP fluorescence plate reader assay of iodide influx in ANO1 expressing FRT cells. The class given is cell-based. The settings on record: read-out: IC50 of ANO1 inhibition. How it is done: Cell based screening was performed as described in previous study. Briefly, ANO1 and YFP expressing FRT cells were plated in 96-well black-walled microplates (Corning Inc., Corning, NY) at a density of 20,000 cells per well, and then cultured for 2 days. Assays were done using FLUOstar Omega microplate reader (BMG Labtech, Ortenberg, Germany) and MARS Data Analysis Software (BMG Labtech). Each well of 96-well plate was washed 3 times in PBS (200 μL/wash), leaving 100 μL PBS. Test compounds (1 μL) were added to each well at 25 μM final concentration. After 10 min, 96-well plates were transferred to a plate reader for fluorescence assay. Each well was assayed individually for TMEM16A-mediated I^- influx by recording fluorescence continuously (400 ms per point) for 1 s (baseline), then 100 μL of 140 mM I^- solution containing 200 μM ATP was added at 1 s and then YFP fluorescence was recorded for 5 s. Initial iodide influx rate was determined from the initial slope of fluorescence decrease, by nonlinear regression, following infusion of iodide with ATP.
ANO1 chloride channel activity was measured using Fischer rat thyroid (FRT) cells stably expressing human ANO1(abc) and the genetically encoded iodide-sensing fluorescent protein, YFP-F46L/H148Q/I152L. This cell model was used because of our prior success in ANO1 chloride channel drug discovery. For the screening to identify ANO1 inhibitors, the FRT cells were pre-incubated with test compounds for 10 minutes prior to addition of an iodide and ATP, an agonist of P2 purinergic receptor which induces an increase in intracellular calcium concentration and activation of ANO1, containing solution.

In a further assay the target is T2, ANO1 (Homo sapiens, UniProt Q5XXA6, DEL476-501).
T2 construct: expressed in transfected cells
T2 sequence (Q5XXA6 with tags, fused parts or gaps isoform Q5XXA6-5 DEL539-564): T1 sequence (Q5XXA6 with tags, fused parts or gaps isoform Q5XXA6-5 DEL539-564)
Briefly: Apical membrane current in ANO1 expressing FRT cells. The class given is cell-based. The settings on record: 100 μM ATP. The procedure: (§1) Snapwell inserts containing ANO1, ANO2 or CFTR expressing FRT cells, ENaC expressing T-84 cells or the human primary airway epithelial cells were mounted in Ussing chambers (Physiologic Instruments, San Diego, CA). To induce transcriptional ENaC induction, the polarized T84 cells were incubated with 2 mM sodium butyrate for 2 days. To increase the functional expression of ANO1, the human airway epithelial cells were treated with IL-4 (10 ng/mL) for 2 days. For T-84 and the human primary airway epithelial cells, the apical and basolateral bath were filled with HCO3^—buffered solution containing (in mM): 120 NaCl, 5 KCl, 1 MgCl2, 1 CaCl2, 10 D-glucose, 2.5 HEPES, and 25 NaHCO3 (pH 7.4). For FRT cells, the basolateral bath was filled with the HCO3^—buffered solution and the apical bath was filled with a half-Cl^- solution. In the half-Cl^- solution 65 mM NaCl in the HCO3^—buffered solution was replaced by Na-gluconate. […] ATP was applied to the apical bath solution to induce intracellular calcium increase. […] Apical membrane currents were measured with an EVC4000 Multi-Channel V/I Clamp (World Precision Instruments, Sarasota, FL) and PowerLab 4/35 (AD Instruments, Castle Hill, Australia). Data were analyzed using Labchart Pro 7 (AD Instruments). The sampling rate was 4 Hz.

Assay [1] has as its system VRAC. Kind of assay: VRAC activity by YFP quenching in LN215 cells. The format is cell-based, human. The settings on record: 10 μM. How it is done: LN215 cells, a human glioma cell line, were stably transfected with YFP-F46L/H148Q/I152L, a halide sensor YFP. After the cells were incubated on 96well black plates (Corning Inc., Corning, NY) for 48 hours, each well of the 96-well plate was washed 3 times in PBS (200 μL/wash), and the wells were filled with 50 μl/well isotonic solution (in mM): 140 NaCl, 5 KCl, 20 HEPES (310 mOsm/kg; pH 7.4 with NaOH). In each well, VRAC expressed on the cells were stimulated with addition of 50 μl of hypotonic solutions (in mM): 5 KCl, 20 HEPES, 90 mannitol (120 mOsm/kg). Test compounds (1 μL) were added to each well in a dose dependent manner. After 5 min, 96-well plates were transferred to a plate reader for fluorescence assay. Each well was assayed individually for VRAC-mediated I^- influx by recording fluorescence continuously (400 ms per point) for 7.6 s. YFP fluorescence was recorded 0.4 s for baseline, then 100 μL of 140 mM I^- solution was added at 0.4 s to see the change in fluorescence. Initial iodide influx rate was determined from the initial slope of fluorescence decrease, by nonlinear regression, following infusion of iodide.

Another assay addresses T3, mouse ANO2 (Mus musculus, UniProt Q8CFW1).
T3 sequence (Q8CFW1 1-1002): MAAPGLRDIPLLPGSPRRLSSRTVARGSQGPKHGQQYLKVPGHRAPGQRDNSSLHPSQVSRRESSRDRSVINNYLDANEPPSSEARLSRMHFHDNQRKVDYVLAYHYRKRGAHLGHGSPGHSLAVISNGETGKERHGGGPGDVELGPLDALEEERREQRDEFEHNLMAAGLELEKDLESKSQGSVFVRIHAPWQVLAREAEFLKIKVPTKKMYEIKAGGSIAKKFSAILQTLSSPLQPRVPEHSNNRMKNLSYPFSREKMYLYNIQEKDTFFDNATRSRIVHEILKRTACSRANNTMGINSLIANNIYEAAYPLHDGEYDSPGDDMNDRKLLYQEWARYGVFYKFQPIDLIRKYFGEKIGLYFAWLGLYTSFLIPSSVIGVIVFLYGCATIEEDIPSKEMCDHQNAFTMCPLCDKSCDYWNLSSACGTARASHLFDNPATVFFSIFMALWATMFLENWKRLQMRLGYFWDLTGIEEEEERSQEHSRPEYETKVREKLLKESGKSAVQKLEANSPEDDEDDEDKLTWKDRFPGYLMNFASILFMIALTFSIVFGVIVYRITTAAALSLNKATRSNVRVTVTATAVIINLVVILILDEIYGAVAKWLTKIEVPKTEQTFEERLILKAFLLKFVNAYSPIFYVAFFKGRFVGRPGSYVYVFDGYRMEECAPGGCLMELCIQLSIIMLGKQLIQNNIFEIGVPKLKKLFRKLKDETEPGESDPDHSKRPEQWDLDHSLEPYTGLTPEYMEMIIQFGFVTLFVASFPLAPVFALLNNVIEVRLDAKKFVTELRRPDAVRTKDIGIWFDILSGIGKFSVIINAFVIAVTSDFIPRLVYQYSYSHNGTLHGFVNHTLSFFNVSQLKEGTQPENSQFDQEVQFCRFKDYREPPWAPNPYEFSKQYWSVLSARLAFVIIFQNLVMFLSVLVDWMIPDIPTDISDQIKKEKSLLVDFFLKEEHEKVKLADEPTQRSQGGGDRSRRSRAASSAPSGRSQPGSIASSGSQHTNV
Kind of assay: YFP quenching assay in FRT cells expressing ANO2. The class given is cell-based. The settings on record: dose dependent, 100 μM ATP.

Another assay deals with T4, ANO2 (Mus musculus, UniProt Q8CFW1).
T4 sequence (Q8CFW1 1-1002): T3 sequence (Q8CFW1 1-1002)
Briefly: Apical membrane current in FRT-ANO2 cells. The format is cell-based. The settings on record: 10 μM pretreatment. How it is done:
as §1
ANO1 belongs to anoctamin gene family which contains ten members presenting eight-pass transmembrane segments with cytosolic N- and C-terminals. ANO2 shares a high level of amino acid homology to ANO1 (~60%) and, ANO1 and ANO2 are confirmed CaCCs. However, the roles of other family members (ANO3-ANO10) remain poorly understood and controversial. […] We investigated the effect of these inhibitors on ANO2-mediated apical membrane current in FRT-ANO2 cells.

Assay [2] concerns VRAC. Further details: method as in PMID 24965069, PMID 25163766, PMID 26438191. The settings on record: ref [26]–[28]; cited from earlier work.
The target in a further assay is T5, human wild-type CFTR (Homo sapiens, UniProt P13569).
T5 construct: expressed in transfected cells; host or cells: Fischer rat thyroid (FRT) cells
T5 sequence (P13569 whole entry): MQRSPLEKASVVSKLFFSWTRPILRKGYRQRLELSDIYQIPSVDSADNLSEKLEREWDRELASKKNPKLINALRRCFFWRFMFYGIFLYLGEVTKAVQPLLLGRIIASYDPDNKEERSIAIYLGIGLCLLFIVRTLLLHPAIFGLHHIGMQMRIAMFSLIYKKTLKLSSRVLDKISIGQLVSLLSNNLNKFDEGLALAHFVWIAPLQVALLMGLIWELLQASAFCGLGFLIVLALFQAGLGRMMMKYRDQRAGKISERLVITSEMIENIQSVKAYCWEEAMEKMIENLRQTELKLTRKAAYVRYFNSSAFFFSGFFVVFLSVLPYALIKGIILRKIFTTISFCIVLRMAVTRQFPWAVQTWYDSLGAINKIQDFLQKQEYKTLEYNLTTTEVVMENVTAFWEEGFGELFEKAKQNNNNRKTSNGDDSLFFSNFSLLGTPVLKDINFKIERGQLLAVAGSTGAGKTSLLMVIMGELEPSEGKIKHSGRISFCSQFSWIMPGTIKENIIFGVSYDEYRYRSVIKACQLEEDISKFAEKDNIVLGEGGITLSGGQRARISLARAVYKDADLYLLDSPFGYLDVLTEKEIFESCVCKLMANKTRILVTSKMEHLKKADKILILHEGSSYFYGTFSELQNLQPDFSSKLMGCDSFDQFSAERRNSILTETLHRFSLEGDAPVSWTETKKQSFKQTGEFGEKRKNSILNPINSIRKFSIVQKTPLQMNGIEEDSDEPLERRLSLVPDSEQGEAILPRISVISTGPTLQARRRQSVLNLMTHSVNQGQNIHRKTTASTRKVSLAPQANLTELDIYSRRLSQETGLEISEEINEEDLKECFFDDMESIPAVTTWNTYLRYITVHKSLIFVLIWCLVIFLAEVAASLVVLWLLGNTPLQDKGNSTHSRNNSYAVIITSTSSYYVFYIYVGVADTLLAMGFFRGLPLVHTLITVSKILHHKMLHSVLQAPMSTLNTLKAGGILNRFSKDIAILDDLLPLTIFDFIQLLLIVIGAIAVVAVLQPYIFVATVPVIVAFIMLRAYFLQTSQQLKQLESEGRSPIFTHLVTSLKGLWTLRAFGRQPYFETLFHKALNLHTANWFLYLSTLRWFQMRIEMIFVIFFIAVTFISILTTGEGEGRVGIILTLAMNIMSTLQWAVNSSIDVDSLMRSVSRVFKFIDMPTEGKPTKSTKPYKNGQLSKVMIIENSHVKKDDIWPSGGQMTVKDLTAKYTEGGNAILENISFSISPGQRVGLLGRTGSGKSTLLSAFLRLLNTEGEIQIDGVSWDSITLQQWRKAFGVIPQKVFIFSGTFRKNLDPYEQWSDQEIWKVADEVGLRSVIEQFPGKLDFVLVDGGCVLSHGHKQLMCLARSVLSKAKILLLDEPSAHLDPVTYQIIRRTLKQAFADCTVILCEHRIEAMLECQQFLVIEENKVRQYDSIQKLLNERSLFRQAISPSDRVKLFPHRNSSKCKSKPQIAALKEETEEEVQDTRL
Briefly: Apical membrane current in FRT cells expressing CFTR. The format is cell-based. The settings on record: 10 μM, CFTR activated by 20 μM forskolin. How it is done: as §1
ANO1 was activated by either 10 μM Eact, an ANO1 activator, or 100 μM ATP.

For `CCOc1ccc(Br)cc1/C=N/NC(=O)COc1ccc(Cl)cc1Cl` [#1], on human ANO1(abc), the IC50 is 0.194 µM.

For the molecule `COc1ccc(OC)c(/C=N/NC(=O)COc2ccc(Cl)cc2C)c1` [#2], the IC50 at human ANO1(abc) was found to be 0.262 µM.

On to `Cc1cc(Cl)ccc1OCC(=O)N/N=C/c1ccc(O)cc1` [#3], for which the IC50 on human ANO1(abc) is 0.301 µM.

In the case of `COc1ccccc1/C=N/NC(=O)COc1ccc(Br)cc1OC` [#4], at human ANO1(abc), the IC50 was 0.438 µM.

For `COc1ccccc1/C=N/NC(=O)COc1ccc(I)cc1` [#5], the IC50 at human ANO1(abc) came out at 0.481 µM.

Consider `CCc1ccc(Br)cc1/C=N/NC(=O)COc1ccc(Br)cc1` [#6], for which the IC50 on human ANO1(abc) stood at 0.512 µM.

Consider `Cc1cc(Cl)ccc1OCC(=O)N/N=C/c1ccc(O)cc1O` [#7], for which the IC50 on human ANO1(abc) was 0.572 µM.

With `CCOc1cc(I)cc(/C=N/NC(=O)COc2cccc(C)c2C)c1O` [#8], on human ANO1(abc), the IC50 was determined as 0.894 µM.

With `Cc1cc(Cl)ccc1OCC(=O)N/N=C/c1ccccc1O` [#9], on human ANO1(abc), the IC50 was 1.02 µM.

As for `COc1cc(Nc2ccc([N+](=O)[O-])cc2C(=O)O)cc2ccccc12` [MONNA, N-((4-methoxy)-2-naphthyl)-5-nitroanthranilic acid], the “inhibition of ATP-induced ANO1 current” value on ANO1 (10 μM pretreatment) is listed as “almost complete inhibition”. Moreover, on ANO1 (apical membrane current, 20 min pretreatment, read-out: IC50 of ATP-induced ANO1 activation), the IC50 was found to be 1.95 ± 1.16 µM. In addition, in the assay on VRAC [1], the “inhibition of VRAC activity” value came to 87.9 ± 1.7%. Further, the “effect on ANO2 activity” value on mouse ANO2 is “potently blocked”. At ANO2, the “effect on ATP-induced ANO2 current” value is “strongly blocked”.

On to `O=C(Nc1cc(C(F)(F)F)cc(C(F)(F)F)c1)Nc1ccc(Br)cc1-c1nnn[nH]1` [NS3728], for which the “block of VRAC activity” value in the assay on VRAC [2] is “potently blocked”.

On to CFTRinh-172, for which, at human wild-type CFTR, the “effect on CFTR channel activity” value is on record as “inhibited”.
